# From US10781197B2, “Sulfonamide analogues of galiellalactone” (GLACTONE PHARMA DEVELOPMENT AB, priority 2016, dated 2020)
# pIC50: −log10 of the molar value.
# Tested on: STAT3 signaling
# Test: STAT3 Luciferase reporter gene assay
# Assay type: cell-based
# Details: not given
# Experimental: The ability to inhibit STAT3 signaling of the example compounds in comparison to galiellalactone was evaluated using a STAT3 Luciferase reporter gene assay.
# Compounds were tested for dose response activity to determine IC50 at eight different doses (0.03, 0.1, 0.3, 1, 3, 10, 30 and 100 μM) in triplicate on the STAT3 reporter system.
# Briefly, the STAT3 reporter/HEK293 cell line was plated in 96-well white plates for 16 h. Cells were pretreated with compounds for 1 h. Cells were then treated with IL-6 to induce STAT3 activation for 16 h. Luciferase activity was measured and analyzed.
row,SMILES,activity in the STAT3 reporter assay (in words)
1,"Cc1ccc(S(=O)(=O)N(C)[C@@]2(C)C=C3C(=O)O[C@@H]4CC[C@H](C2)[C@]34O)cc1 [Example 23, N-[(4R,7R,9R,11 S)-11-Hydroxy-9-methyl-2-oxo-3-oxatricyclo[5.3.1.0^4,11]undec-1(10)-en-9-yl]-N,4-dimethylbenzene-1-sulfonamide]",significantly reduced or total loss of activity
2,"CC(C)S(=O)(=O)N[C@@]1(C)C=C2C(=O)O[C@@H]3CC[C@H](C1)[C@]23O [Example 24, N-[(4R,7R,9R,11 S)-11-Hydroxy-9-methyl-2-oxo-3-oxatricyclo[5.3.1.0^4,11]undec-1(10)-en-9-yl]propane-2-sulfonamide]",significantly reduced or total loss of activity

# Same assay, conditions: Homo sapiens; STAT3 reporter/HEK293 cell line, 1 h pretreatment, IL-6 induced for 16 h, luciferase activity; read-out: IC50
row,SMILES,pIC50
1,"C[C@]1(NS(=O)(=O)c2ccccc2)C=C2C(=O)O[C@@H]3CCC(C1)[C@]23O (stereo partly drawn) [Example 2, N-[(4R,7R,9R,11S)-11-Hydroxy-9-methyl-2-oxo-3-oxatricyclo[5.3.1.0^4,^11]undec-1(10)-en-9-yl]benzenesulfonamide]",5.52
2,"C[C@]1(NS(=O)(=O)c2ccccc2F)C=C2C(=O)O[C@@H]3CCC(C1)[C@]23O (stereo partly drawn) [Example 7, 2-Fluoro-N-[(4R,7R,9R,11S)-11-hydroxy-9-methyl-2-oxo-3-oxatricyclo[5.3.1.0^4,^11]undec-1(10)-en-9-yl]benzene-1-sulfonamide]",5.33
3,"C[C@]1(NS(=O)(=O)c2ccc(C#N)cc2)C=C2C(=O)O[C@@H]3CCC(C1)[C@]23O (stereo partly drawn) [Example 9, 4-Cyano-N-[(4R,7R,9R,11S)-11-hydroxy-9-methyl-2-oxo-3-oxatricyclo[5.3.1.0^4,^11]undec-1(10)-en-9-yl]benzene-1-sulfonamide]",5.03
4,"C[C@]1(NS(=O)(=O)c2ccc(C3=NCCO3)cc2)C=C2C(=O)O[C@@H]3CCC(C1)[C@]23O (stereo partly drawn) [Example 11, 4-(4,5-Dihydro-1,3-oxazol-2-yl)-N-[(4R,7R,9R,11S)-11-hydroxy-9-methyl-2-oxo-3-oxatricyclo[5.3.1.0^4,^11]undec-1(10)-en-9-yl]benzene-1-sulfonamide]",6.62
5,"Cc1ccc(S(=O)(=O)N[C@@]2(C)C=C3C(=O)O[C@@H]4CCC(C2)[C@]34O)nc1 (stereo partly drawn) [Example 12, N-[(4R,7R,9R,11S)-11-Hydroxy-9-methyl-2-oxo-3-oxatricyclo[5.3.1.0^4,^11]undec-1(10)-en-9-yl]-5-methylpyridine-2-sulfonamide]",5.47
6,"Cc1ccc(S(=O)(=O)N[C@@]2(C)C=C3C(=O)O[C@@H]4CCC(C2)[C@]34O)s1 (stereo partly drawn) [Example 14, N-[(4R,7R,9R,11S)-11-Hydroxy-9-methyl-2-oxo-3-oxatricyclo[5.3.1.0^4,^11]undec-1(10)-en-9-yl]-5-methylthiophene-2-sulfonamide]",5.17
7,"Cc1ccc(S(=O)(=O)N[C@@]2(C)C=C3C(=O)O[C@@H]4CCC(C2)[C@]34O)cc1F (stereo partly drawn) [Example 16, 3-Fluoro-N-[(4R,7R,9R,11S)-11-hydroxy-9-methyl-2-oxo-3-oxatricyclo[5.3.1.0^4,^11]undec-1(10)-en-9-yl]-4-methylbenzene-1-sulfonamide]",5.35
8,"C[C@]1(NS(=O)(=O)c2ccc(Cl)cc2)C=C2C(=O)O[C@@H]3CCC(C1)[C@]23O (stereo partly drawn) [Example 18, 4-Chloro-N-[(4R,7R,9R,11S)-11-hydroxy-9-methyl-2-oxo-3-oxatricyclo[5.3.1.0^4,^11]undec-1(10)-en-9-yl]benzene-1-sulfonamide]",5.65
9,"CC(C)S(=O)(=O)N[C@@]1(C)C=C2C(=O)O[C@@H]3CC[C@H](C1)[C@]23O [Example 24, N-[(4R,7R,9R,11 S)-11-Hydroxy-9-methyl-2-oxo-3-oxatricyclo[5.3.1.0^4,11]undec-1(10)-en-9-yl]propane-2-sulfonamide]",4.01
10,"COc1ccc(CN2C(=O)C3=C[C@](C)(NS(=O)(=O)c4ccc(C)cc4)CC4CC[C@@H]2[C@@]34O)cc1 (stereo partly drawn) [Example 25, N-[(4R,7R,9R,11S)-11-hydroxy-3-[(4-methoxyphenyl)methyl]-9-methyl-2-oxo-3-azatricyclo[5.3.1.04,^11]undec-1(10)-en-9-yl]-4-methylbenzene-1-sulfonamide]",5.43

# Other lines, results leading:
row,pIC50,SMILES
1,5.08,"COc1ccc(S(=O)(=O)N[C@@]2(C)C=C3C(=O)O[C@@H]4CCC(C2)[C@]34O)cc1 (stereo partly drawn) [Example 3, N-[(4R,7R,9R,11S)-11-Hydroxy-9-methyl-2-oxo-3-oxatricyclo[5.3.1.0^4,^11]undec-1(10)-en-9-yl]-4-methoxybenzene-1-sulfonamide]"
2,5.17,"C[C@]1(NS(=O)(=O)c2ccccc2[N+](=O)[O-])C=C2C(=O)O[C@@H]3CCC(C1)[C@]23O (stereo partly drawn) [Example 4, N-[(4R,7R,9R,11S)-11-Hydroxy-9-methyl-2-oxo-3-oxatricyclo[5.3.1.0^4,^11]undec-1(10)-en-9-yl]-2-nitrobenzene-1-sulfonamide]"
3,5.75,"C[C@]1(NS(=O)(=O)c2ccc(C(F)(F)F)cc2)C=C2C(=O)O[C@@H]3CCC(C1)[C@]23O (stereo partly drawn) [Example 5, N-[(4R,7R,9R,11S)-11-Hydroxy-9-methyl-2-oxo-3-oxatricyclo[5.3.1.0^4,^11]undec-1(10)-en-9-yl]-4-(trifluoromethyl)benzene-1-sulfonamide]"
4,5.17,"Cc1cccc(S(=O)(=O)N[C@@]2(C)C=C3C(=O)O[C@@H]4CCC(C2)[C@]34O)c1 (stereo partly drawn) [Example 6, N-[(4R,7R,9R,11S)-11-Hydroxy-9-methyl-2-oxo-3-oxatricyclo[5.3.1.0^4,^11]undec-1(10)-en-9-yl]-3-methylbenzene-1-sulfonamide]"
5,5.30,"C[C@]1(NS(=O)(=O)c2ccc([N+](=O)[O-])cc2)C=C2C(=O)O[C@@H]3CCC(C1)[C@]23O (stereo partly drawn) [Example 8, N-[(4R,7R,9R,11S)-11-Hydroxy-9-methyl-2-oxo-3-oxatricyclo[5.3.1.0^4,^11]undec-1(10)-en-9-yl]-4-nitrobenzene-1-sulfonamide]"
6,5.49,"C[C@]1(NS(=O)(=O)c2ccc(Br)cc2)C=C2C(=O)O[C@@H]3CCC(C1)[C@]23O (stereo partly drawn) [Example 10, 4-Bromo-N-[(4R,7R,9R,11S)-11-hydroxy-9-methyl-2-oxo-3-oxatricyclo[5.3.1.0^4,^11]undec-1(10)-en-9-yl]benzene-1-sulfonamide]"
7,5.25,"Cc1ccc(S(=O)(=O)N[C@@]2(C)C=C3C(=O)O[C@@H]4CCC(C2)[C@]34O)cn1 (stereo partly drawn) [Example 13, N-[(4R,7R,9R,11S)-11-Hydroxy-9-methyl-2-oxo-3-oxatricyclo[5.3.1.0^4,^11]undec-1(10)-en-9-yl]-6-methylpyridine-3-sulfonamide]"
8,5.54,"C[C@]1(NS(=O)(=O)c2ccc(C(F)(F)F)cc2Cl)C=C2C(=O)O[C@@H]3CCC(C1)[C@]23O (stereo partly drawn) [Example 15, 2-Chloro-N-[(4R,7R,9R,11S)-11-hydroxy-9-methyl-2-oxo-3-oxatricyclo[5.3.1.0^4,^11]undec-1(10)-en-9-yl]-4-(trifluoromethyl)benzene-1-sulfonamide]"
9,5.50,"C[C@]1(NS(=O)(=O)c2ccc(F)cc2)C=C2C(=O)O[C@@H]3CCC(C1)[C@]23O (stereo partly drawn) [Example 17, 4-Fluoro-N-[(4R,7R,9R,11S)-11-hydroxy-9-methyl-2-oxo-3-oxatricyclo[5.3.1.0^4,^11]undec-1(10)-en-9-yl]benzene-1-sulfonamide]"
10,5.01,"Cc1ccc(CS(=O)(=O)N[C@@]2(C)C=C3C(=O)O[C@@H]4CCC(C2)[C@]34O)cc1 (stereo partly drawn) [Example 19, N-[(4R,7R,9R,11S)-11-Hydroxy-9-methyl-2-oxo-3-oxatricyclo[5.3.1.0^4,^11]undec-1(10)-en-9-yl]-1-(4-methylphenyl)methanesulfonamide]"
11,5.44,"C[C@]1(NS(=O)(=O)c2ccc(N)cc2)C=C2C(=O)O[C@@H]3CC[C@H](C1)[C@]23O [Example 21, 4-Amino-N-[(4R,7R,9R,11 S)-11-hydroxy-9-methyl-2-oxo-3-oxatricyclo[5.3.1.0^4,11]undec-1(10)-en-9-yl]benzene-1-sulfonamide]"
12,4.94,"C[C@]1(NS(=O)(=O)c2ccc(CO)cc2)C=C2C(=O)O[C@@H]3CC[C@H](C1)[C@]23O [Example 22, N-[(4R,7R,9R,11S)-11-Hydroxy-9-methyl-2-oxo-3-oxatricyclo[5.3.1.0^4,11]undec-1(10)-en-9-yl]-4-(hydroxymethyl)benzene-1-sulfonamide]"
13,5.06,"COc1ccc(CN2C(=O)C3=C[C@](C)(NS(=O)(=O)c4ccc(C(F)(F)F)cn4)CC4CC[C@@H]2[C@@]34O)cc1 (stereo partly drawn) [Example 26, N-[(4R,7R,9R,11S)-11-Hydroxy-3-[(4-methoxyphenyl)methyl]-9-methyl-2-oxo-3-azatricyclo[5.3.1.04,^11]undec-1(10)-en-9-yl]-5-(trifluoromethyl)pyridine-2 sulfonamide]"
14,5.06,"C[C@]1(NS(=O)(=O)c2ccc(C(F)(F)F)cn2)C=C2C(=O)N(Cc3ccc(C#N)cc3)[C@@H]3CC[C@H](C1)[C@]23O [Example 27, N-[(4R,7R,9R,11S)-3-[(4-Cyanophenyl)methyl]-11-hydroxy-9-methyl-2-oxo-3-azatricyclo[5.3.1.0^4,11]undec-1 (10)-en-9-yl]-5-(trifluoromethyl)pyridine-2-sulfonamide]"

# Same assay, conditions: STAT3 reporter/HEK293 cell line, 1 h pretreatment, IL-6 induced for 16 h, luciferase activity
row,IC50,SMILES
1,inactive,"Cc1ccc(S(=O)(=O)N(C)[C@@]2(C)C=C3C(=O)O[C@@H]4CC[C@H](C2)[C@]34O)cc1 [Example 23, N-[(4R,7R,9R,11 S)-11-Hydroxy-9-methyl-2-oxo-3-oxatricyclo[5.3.1.0^4,11]undec-1(10)-en-9-yl]-N,4-dimethylbenzene-1-sulfonamide]"

# Same assay, conditions: listed as example 23
row,activity in the STAT3 reporter assay (in words),SMILES
1,no or low activity,"Cc1ccc(S(=O)(=O)N(C)[C@@]2(C)C=C3C(=O)O[C@@H]4CC[C@H](C2)[C@]34O)cc1 [Example 23, N-[(4R,7R,9R,11 S)-11-Hydroxy-9-methyl-2-oxo-3-oxatricyclo[5.3.1.0^4,11]undec-1(10)-en-9-yl]-N,4-dimethylbenzene-1-sulfonamide]"

# Same assay, conditions: listed as example 24
row,activity in the STAT3 reporter assay (in words),SMILES
1,no or low activity,"CC(C)S(=O)(=O)N[C@@]1(C)C=C2C(=O)O[C@@H]3CC[C@H](C1)[C@]23O [Example 24, N-[(4R,7R,9R,11 S)-11-Hydroxy-9-methyl-2-oxo-3-oxatricyclo[5.3.1.0^4,11]undec-1(10)-en-9-yl]propane-2-sulfonamide]"
